We go through three compounds from patent US20260138970A1, “MODULATORS OF THE CALCIUM SIGNALING CASCADE” (FONDAZIONE TELETHON ETS, priority 2022, published 2026).

Format in all cases: cell-based
The subject of one experiment is TMEM16A. The experiment is described as follows: HS-YFP assay in FRT cells co-expressing TMEM16A and HS-YFP. To be noted: for potentiation of the effect of UTP on TMEM16A: primary screening and secondary tests, compounds 10 μM. How it is done: Experiments were performed using an automated microplate reader (FLUOstar Omega, BMG Labtech, Offenburg, Germany) equipped with syringe pumps and optical excitation/emission filters optimized for yellow fluorescent protein (YFP) fluorescence (ET500/20× and ET535/30m, respectively; Chroma Technology Corporation). FRT cells with co-expression of TMEM16A and HS-YFP were plated at high density in black wall/clear bottom 96-well microplates (3603, Corning). Each well in microplates was washed 3 times with 150 μl of phosphate-buffered saline (PBS). After washing, each well received 60 μl of PBS containing test compounds at 10 μM final concentration, or TMEM16A inhibitor Ani9 (15) (10 μM), or vehicle. After 20 min of incubation at 37° C., microplates were transferred to the plate reader for fluorescence assay. Each well was assayed individually for TMEM16A-mediated I^− influx by sampling cell fluorescence every 200 ms for 14 s. Two seconds after the start of reading, 165 μl of a modified PBS containing 137 mM KI, instead of NaCl, plus UTP 0.25 μM were automatically added by the reader. K^+ was used in the injected solution to prevent changes of membrane potential due to altered activity of Ca^2+-activated K^+ channels. The fluorescence trace in each well was corrected by background subtraction and then normalized for the initial value measured before I^− addition (F0). The cumulative fluorescence quenching (CFQ) in the time interval between 3 and 13.8 s (representing integration of TMEM16A-dependent I^− influx) was quantified using a procedure compiled in Microsoft Excel according to the formula
For the screening, FRT cells were plated at high density in 96-well microplates. After 48 h, TMEM16A activity was evaluated in a microplate reader by injection in each well of a saline solution containing I^− instead of Cl^− and a submaximal (0.25 μM) UTP concentration (FIG. 1A). Upon injection, UTP triggers Ca^2+ mobilization and TMEM16A activation. The resulting TMEM16A-dependent I^− influx causes HS-YFP quenching. The presence in the well of a small molecule that potentiates TMEM16A activity, in a direct or indirect way, is therefore expected to enhance the rate of HS-YFP quenching.

A further experiment has as its system PLC. The experiment is described as follows: PLC assay in FRT cells expressing PH-PLC-GFP sensor. The settings on record: compounds 10 μM, cytosolic GFP increase, FIG. 3; for potentiation of UTP effect on PLC activity, lower UTP concentration: UTP 0.25 μM; for potentiation of UTP effect on PLC activity, higher UTP concentration: UTP 100 μM. On the procedure: FRT cells with stable expression of PLC6-PH-GFP, generated in the laboratory of inventors, were cultured up to subconfluent condition in p-Plate96 microplates (Ibidi). Each well of a 96-well microplate was washed 3 times, leaving 125 μl of phosphate-buffered saline (PBS) containing compounds at 10 μM final concentration or vehicle. After 20 min of incubation at 37° C., microplate was moved on the stage of an inverted microscope equipped with GFP excitation/emission filters, 40×oil immersion objective (Olympus, Segrate, Italy), Lambda DG4 illumination system (Sutter Instrument Co., Novato, CA, USA), Prime cmos camera (Photometrics, Tucson, AZ, USA) and MetaMorph imaging acquisition software (Molecular Devices, Sunnyvale, CA, USA). Time-lapse experiments were carried out with 50 ms exposure time, 20 frame/s rate, and 2.4 min total duration. After 20 s and 90 s, UTP 0.25 μM and 100 μM (final concentrations) was respectively added. Analysis was performed with MetaMorph software, by quantifying GFP fluorescence cytoplasmic accumulation in manually selected single cell regions of interest (ROI). After background subtraction, fluorescence recordings were normalized for the initial value.

The subject of another experiment is ITPR. Put plainly: ci-IP3/PM uncaging Ca2+ imaging assay in FRT cells. To be noted: compounds 10 μM; FIG. 4. How it is done:
FRT and HEK293 cells were cultured in μ-Plate96 microplates (Ibidi) at subconfluent condition. Cells were washed 2 times with PBS (150 μl/wash) and then loaded for 45 min at 37° C. with 1 μM ci-IP3/PM (Tocris; catalog number: 6210/10U) and 5 μM Fluo-4/AM (Thermo Fisher Scientific) in PBS containing 10 mM glucose, 0.5 mM sulfinpyrazone and 1% fetal bovine serum. After 45 min, cells were further incubated for 1 h at 37° C. with a fresh PBS solution containing Fluo-4/AM, glucose, sulfinpyrazone, serum, but no ci-IP3/PM. After the second loading, cells were washed 2 times with PBS-glucose-sulfinpyrazone (150 μl/wash) and incubated for 20 min at 37° C. with 125 μl of PBS plus 10 mM glucose and 0.5 mM sulfinpyrazone containing compounds of interest at 10 μM final concentration or vehicle. Each well was assayed individually using an inverted Olympus microscope equipped with 40×oil immersion objective, 530 nm emission filter, Lambda DG4 (Sutter Instrument Co., Novato, CA, USA) illumination system with a 490 nm excitation filter, (Olympus, Segrate, Italy), Prime cmos camera (Photometrics, Tucson, AZ, USA) and MetaFluor imaging acquisition software (Molecular Devices, Sunnyvale, CA, USA). Time-lapse experiments were carried out with 50 ms exposure time, 0.5 s interval and 1.8 min total duration. […] Analysis was performed with MetaFluor software, by quantifying Fluo-4 fluorescence in manually selected single cell region of interest (ROI). Eight cells were selected in each field to generate an average trace. After background subtraction, fluorescence traces were normalized for the initial value.

[1] abbreviates: FRT cells expressing TMEM16A, UTP 0.25 μM, FIG. 1D.

Consider `OCc1ccccc1CN(Cc1ccnc(N2CCCC2)n1)c1ccc(F)cc1` [ARN4550, [2-[[4-Fluoro-N-[(2-pyrrolidin-1-ylpyrimidin-4-yl)methyl]anilino]methyl]phenyl]methanol], for which, in the experiment with TMEM16A (setting [1]), the “concentrations at which effective / active, dose-response by HS-YFP assay” value came out at 10 µM. Further, in the experiment on TMEM16A, the “potentiation of the effect of UTP on TMEM16A” value (“potentiation … on TMEM16A” below) is “significantly potentiated”. For the same compound, in the experiment with PLC, the “potentiation of UTP effect on PLC activity, lower UTP concentration” value is on record as “significantly potentiated” and the “potentiation of UTP effect on PLC activity, higher UTP concentration” value (shortened to “potentiation … higher UTP concentration”) is “effective”. The “activity on Ca2+ mobilization by IP3 uncaging, FRT cells” value (shortened to “activity on Ca2+ mobilization”) in the experiment on ITPR was “inactive”.

As to `CCc1cc(-c2cc(NCCCOc3ccccc3C)nc(N)n2)n(C)n1` [ARN7149, 6-(3-Ethyl-1-methyl-1H-pyrazol-5-yl)-N^4-(3-(o-tolyloxy)propyl)pyrimidine-2,4-diamine], in the experiment with TMEM16A (setting [1]), the “concentrations at which effective / active, dose-response by HS-YFP assay” value lay within 5 to 20 µM and the “shape of dose-response relationship, HS-YFP assay” value is given as “bell-shaped”. In addition, in the experiment with TMEM16A, the “potentiation … on TMEM16A” value is given as “significantly potentiated”. In addition, in the experiment on PLC, the “potentiation of UTP effect on PLC activity, lower UTP concentration” value was “significantly potentiated” and the “potentiation … higher UTP concentration” value is on record as “effective”. Also, the “activity on Ca2+ mobilization” value in the experiment with ITPR is “inactive”.

Consider `CCn1nc2c(c1C(=O)Nc1ccccc1OCC1CCCCO1)CCCC2` (stereo not drawn) [ARN11391, 2-Ethyl-N-[2-(tetrahydropyran-2-ylmethoxy)phenyl]-4,5,6,7-tetrahydroindazole-3-carboxamide], for which the “concentrations at which effective / active, dose-response by HS-YFP assay” value in the experiment on TMEM16A (setting [1]) was determined as 10 µM. The “potentiation … on TMEM16A” value in the experiment on TMEM16A is reported as “significantly potentiated”. Further, the “potentiation … higher UTP concentration” value with PLC is given as “effective”. The “activity on Ca2+ mobilization” value in the experiment with ITPR was “showed activity”.
